Laboratory results reported in ChEMBL document CHEMBL6153036, “Genome-informed Discovery of Monchicamides A-K: Cyanobactins from the Microcoleaceae Cyanobacterium LEGE 16532” (J Nat Prod, 2025).
Calls of active or inactive are those of the source. Where a SMILES comes first, the peptide text is derived from it. [ ]: non-standard residue; d: D form. The star is where a group is joined. ξ: configuration not given here. ξIle = CC[C@H](C)C(N)C(=O)O; Prenyl = CC(C)=CC*

How the values were obtained:
HepG2 = test: Cytotoxicity against human HepG2 cells assessed as cell viability at 10 ug/mL incubated for 48 hrs by MTT assay; type: functional, cell-based; settings: dose 10.0 µg/ml
HCT-116 = test: Cytotoxicity against human HCT-116 cells assessed as cell viability at 10 ug/mL incubated for 48 hrs by MTT assay; type: functional, cell-based; settings: dose 10.0 µg/ml
SH-SY5Y = test: Cytotoxicity against human SH-SY5Y cells assessed as cell viability at 10 ug/mL incubated for 48 hrs by MTT assay; type: functional, cell-based; settings: dose 10.0 µg/ml
Staphylococcus aureus = test: Antibacterial activity against Staphylococcus aureus ATCC 29213 assessed as bacterial growth inhibition at 1 mg/mL preincubated for 30 mins at room temperature followed by incubation at 37 degreeC for 24 hrs by agar disc-diffusion method; type: functional, organism-based; settings: time 24.5 hrs
Bacillus subtilis = test: Antibacterial activity against Bacillus subtilis ATCC 6633 assessed as bacterial growth inhibition at 1 mg/mL preincubated for 30 mins at room temperature followed by incubation at 37 degreeC for 24 hrs by agar disc-diffusion method; type: functional, organism-based; settings: time 24.5 hrs
Salmonella typhimurium = test: Antibacterial activity against Salmonella typhimurium ATCC 25241 assessed as bacterial growth inhibition at 1 mg/mL preincubated for 30 mins at room temperature followed by incubation at 37 degreeC for 24 hrs by agar disc-diffusion method; type: functional, organism-based; settings: Salmonella enterica subsp. enterica serovar Typhimurium, time 24.5 hrs
Candida albicans = test: Antifungal activity against Candida albicans ATCC 10231 assessed as fungal growth inhibition at 1 mg/mL preincubated for 30 mins at room temperature followed by incubation at 37 degreeC for 24 hrs by agar disc-diffusion method; type: functional, organism-based; settings: time 24.5 hrs
Escherichia coli = test: Antibacterial activity against Escherichia coli ATCC 25922 assessed as bacterial growth inhibition at 1 mg/mL preincubated for 30 mins at room temperature followed by incubation at 37 degreeC for 24 hrs by agar disc-diffusion method; type: functional, organism-based; settings: time 24.5 hrs
Acanthamoeba castellanii = test: Antiamoebic activity against Acanthamoeba castellanii assessed as cell viability at 10 uM incubated for 24 hrs by Alamar blue staining based assay; type: functional, organism-based
Acanthamoeba polyphaga = test: Antiamoebic activity against Acanthamoeba polyphaga assessed as cell viability at 10 uM incubated for 24 hrs by Alamar blue staining based assay; type: functional, organism-based
Dictyostelium discoideum = test: Antiamoebic activity against Dictyostelium discoideum assessed as cell viability at 10 uM incubated for 24 hrs by Alamar blue staining based assay; type: functional, organism-based

Measured: Activity

CC[C@H](C)C1NC(=O)[C@@H]2CCCN2C(=O)[C@H](Cc2ccc(OCC=C(C)C)cc2)NC(=O)[C@@H]2CCCN2C(=O)[C@H](C(C)C)NC(=O)CNC(=O)[C@H](C(C)C)NC(=O)CNC1=O (stereo partly specified) (cyclo(GVGVPY(Prenyl)P[ξIle]))
inactive: all assays above
